Test system: LNCaP xenograft tumor-bearing mice
Test: Biodistribution studies of 177Lu-labeled ligands in LNCaP xenograft mice
Assay type: in vivo, mouse
Settings: for Max. Tumor Uptake: corresponding 177Lu-labeled compound, 4 h p.i. (a)
Protocol: Inoculation of mice with xenografts: All animal studies were approved by the Institutional Animal Care and Use Committee of Weill Cornell Medicine and were undertaken in accordance with the guidelines set forth by the USPHS Policy on Humane Care and Use of Laboratory Animals. Animals were housed under standard conditions in approved facilities with 12 h light/dark cycles. Food and water was provided ad libitum throughout the course of the studies. Hairless male nu/nu mice were purchased from the Jackson Laboratory. For inoculation in mice, LNCaP cells were suspended at 4×10^7 cells/mL in a 1:1 mixture of PBS:Matrigel (BD Biosciences). Each mouse was injected in the left flank with 0.25 mL of the cell suspension. The mice were imaged when the tumors reached approximately 200-400 mm^3, while biodistributions were conducted when tumors were in the range 100-400 mm^3.
Biodistribution studies of 177Lu-labeled ligands in LNCaP xenograft mice: LNCaP xenograft tumor-bearing mice (5 per time point per compound) were injected intravenously with a bolus injection of 348-851 kBq (9.4-23 μCi) and 37-50 ng ([…]) of each ligand. The mice were sacrificed at 4, 24 and 96 h post injection. A blood sample was removed, and a full biodistribution study was conducted on the following organs (with contents): heart, lungs, liver, small intestine, large intestine, stomach, spleen, pancreas, kidneys, muscle, bone and tumor. Tissues were weighed and counted on a 2470 Wizard^2 Automatic Gamma Counter (Perkin Elmer). Counts were corrected for decay and for activity injected, and tissue uptake was expressed as percent injected dose per gram (% ID/g). Standard error measurement was calculated for each data point.

SMILES	blood activity (comparison within the series) (4 h p.i.)	Max. Tumor Uptake
O=C(O)CCC(NC(=O)NC(CCCCNC(=O)Nc1cccc(-c2cnnn2CC(=O)NC(CCCCNC(=S)Nc2ccc(CC3CN(CC(=O)O)CCN(CC(=O)O)CCN(CC(=O)O)CCN3CC(=O)O)cc2)C(=O)NC(CCCCNC(=O)Cc2ccc(I)cc2)C(=O)O)c1)C(=O)O)C(=O)O (centres unmarked) [177Lu-RPS-068, metal not drawn]	highest blood activity	
O=C(O)CC[C@H](NC(=O)N[C@@H](CCCCNC(=O)Nc1cccc(-c2cn(CCOCCOCCOCCOCCC(=O)N[C@@H](CCCCNC(=S)Nc3ccc(CC4CN(CC(=O)O)CCN(CC(=O)O)CCN(CC(=O)O)CCN4CC(=O)O)cc3)C(=O)N[C@@H](CCCCNC(=O)Cc3ccc(I)cc3)C(=O)O)nn2)c1)C(=O)O)C(=O)O (stereo partly drawn) [RPS-061, (((1S)-1-carboxy-5-(3-(3-(1-((17S,20S)-20-carboxy-27-(4-iodophenyl)-15,18,26-trioxo-17-(4-(3-(4-((1,4,7,10-tetrakis(carboxymethyl)-1,4,7,10-tetraazacyclododecan-2-yl)methyl)phenyl)thioureido)butyl)-3,6,9,12-tetraoxa-16,19,25-triazaheptacosyl)-1H-1,2,3-triazol-4-yl)phenyl)ureido)pentyl)carbamoyl)-L-glutamic acid]		20.4 ± 3.1 % ID/g
O=C(O)CC[C@H](NC(=O)N[C@@H](CCCCNC(=O)Nc1cccc(-c2cn(CCOCCOCCOCCC(=O)N[C@@H](CCCCNC(=S)Nc3ccc(CC4CN(CC(=O)O)CCN(CC(=O)O)CCN(CC(=O)O)CCN4CC(=O)O)cc3)C(=O)N[C@@H](CCCCNC(=O)Cc3ccc(I)cc3)C(=O)O)nn2)c1)C(=O)O)C(=O)O (stereo partly drawn) [RPS-063, (((1S)-1-carboxy-5-(3-(3-(1-((14S,17S)-17-carboxy-24-(4-iodophenyl)-12,15,23-trioxo-14-(4-(3-(4-((1,4,7,10-tetrakis(carboxymethyl)-1,4,7,10-tetraazacyclododecan-2-yl)methyl)phenyl)thioureido)butyl)-3,6,9-trioxa-13,16,22-triazatetracosyl)-1H-1,2,3-triazol-4-yl)phenyl)ureido)pentyl)carbamoyl)-L-glutamic acid]		30.0 ± 6.9 % ID/g
O=C(O)CC[C@H](NC(=O)N[C@@H](CCCCNC(=O)Nc1cccc(-c2cn(CCOCCOCCOCCOCCOCCOCCOCCOCCC(=O)N[C@@H](CCCCNC(=S)Nc3ccc(CC4CN(CC(=O)O)CCN(CC(=O)O)CCN(CC(=O)O)CCN4CC(=O)O)cc3)C(=O)N[C@@H](CCCCNC(=O)Cc3ccc(I)cc3)C(=O)O)nn2)c1)C(=O)O)C(=O)O (stereo partly drawn) [RPS-066, (((1S)-1-carboxy-5-(3-(3-(1-((29S,32S)-32-carboxy-39-(4-iodophenyl)-27,30,38-trioxo-29-(4-(3-(4-((1,4,7,10-tetrakis(carboxymethyl)-1,4,7,10-tetraazacyclododecan-2-yl)methyl)phenyl)thioureido)butyl)-3,6,9,12,15,18,21,24-octaoxa-28,31,37-triazanonatriacontyl)-1H-1,2,3-triazol-4-yl)phenyl)ureido)pentyl)carbamoyl)-L-glutamic acid]		18.7 ± 1.1 % ID/g
O=C(O)CC[C@H](NC(=O)N[C@@H](CCCCNC(=O)Nc1cccc(-c2cnnn2CCOCCOCCOCCOCCOCCOCCOCCOCCOCCOCCOCCOCCC(=O)N[C@@H](CCCCNC(=S)Nc2ccc(CC3CN(CC(=O)O)CCN(CC(=O)O)CCN(CC(=O)O)CCN3CC(=O)O)cc2)C(=O)N[C@@H](CCCCNC(=O)Cc2ccc(I)cc2)C(=O)O)c1)C(=O)O)C(=O)O (stereo partly drawn) [RPS-067, (((1S)-1-carboxy-5-(3-(3-(1-((41S,44S)-44-carboxy-51-(4-iodophenyl)-39,42,50-trioxo-41-(4-(3-(4-((1,4,7,10-tetrakis(carboxymethyl)-1,4,7,10-tetraazacyclododecan-2-yl)methyl)phenyl)thioureido)butyl)-3,6,9,12,15,18,21,24,27,30,33,36-dodecaoxa-40,43,49-triazahenpentacontyl)-1H-1,2,3-triazol-5-yl)phenyl)ureido)pentyl)carbamoyl)-L-glutamic acid]		7.6 ± 1.2 % ID/g
